In patent publication US20230255906A1, “Targeting Serpin B9 in Cancer” (The Brigham and Women`s Hospital, Inc., priority 2020, published 2023):

Tests used:
[1] = target: T1, MBP-Sb9 (Homo sapiens, UniProt P50453); assay: Saturation-Transfer Difference (STD) NMR assay; format: binding
T1 construct: made in house
T1 sequence (P50453 2-376): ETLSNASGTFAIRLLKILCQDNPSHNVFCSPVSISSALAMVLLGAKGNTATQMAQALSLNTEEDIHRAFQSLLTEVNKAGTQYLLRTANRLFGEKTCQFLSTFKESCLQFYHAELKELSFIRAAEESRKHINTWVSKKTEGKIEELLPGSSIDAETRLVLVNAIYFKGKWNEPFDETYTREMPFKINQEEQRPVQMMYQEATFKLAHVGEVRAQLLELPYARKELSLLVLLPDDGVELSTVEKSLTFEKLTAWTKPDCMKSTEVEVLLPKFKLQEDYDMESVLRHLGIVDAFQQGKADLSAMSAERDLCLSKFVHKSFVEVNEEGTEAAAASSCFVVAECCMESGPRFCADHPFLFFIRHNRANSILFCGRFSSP
Source text: The Saturation-Transfer Difference (STD) NMR assay was used to evaluate the binding of the compound of Formula (III) to Sb9. […] The saturation period was 3.0 seconds with irradiation at 0 ppm (on-resonance excitation) and −20 ppm (off-resonance excitation). The number of scans was 160 for the on and off-resonance spectra, respectively. Spectra were processed using Topspin software and apodized with exponential multiplication with 1.0 Hz line-broadening.
The Saturation-Transfer Difference (STD) NMR assay was used to evaluate the binding of the compounds of Formulas (I) and (II) to Sb9. […] The saturation period was 3.0 seconds with irradiation at 0.7 ppm (on-resonance excitation) and 20 ppm (off-resonance excitation). The number of scans was 800. The spectra were processed using Topspin software with 1.0 Hz line-broadening.
The Saturation-Transfer Difference (STD) NMR assay as described herein was used to evaluate the binding of the compound of Formula (III) to Sb9.

[2] = test system: B16-WT mouse melanoma tumors; assay: B16 melanoma tumor model in C57BL/6 mice; format: in vivo
Protocol: Mice were anesthetized with isoflurane, and tumor cell lines (B16, A375, and 4T1) were gently injected subcutaneously in the flanks or mammary glands of mice. One hundred thousand cells (1×10^5 cells) were injected per mouse for most of the experiments. However, twenty-five thousand cells (25×10^3 cells) were injected per mouse for the experiments using the compound of Formula (III). Upon 4 hrs post-implantation, 300 μg of the compound of Formula (III) was administered twice a day intraperitoneally for 14 days. Tumor growth was monitored three times per week by digital caliper (Fisherbrand™ Traceable™ Digital Calipers).
The anti-tumor activity of the compound of Formula (III) in vivo was assessed. […] Treatment with the compound of Formula (III) increased the median survival time (MST) of mice bearing B 16-WT mouse melanoma tumors and receiving treatment with the compound of Formula (III) as compared to mice bearing B16-WT melanoma tumors and not receiving treatment (MST=39 days vs MST=26 days, respectively) (FIG. 51B). Next, the effect of the compound of Formula (III) on tumor immunity was examined.
The efficacy of the compound of Formula (III) was assessed in C57BL/6J mice (FIG. 18). B16 mouse melanoma cells were implanted subcutaneously into the right flanks of C57BL/6J mice, and the mice were randomized into three groups: (1) no treatment (control), (2) treatment with anti-PD1, and (3) treatment with Formula (III). The mice in the anti-PD1 group received 200 μg of anti-PD1 iv every 3 days, and those in the Formula (III) group received 300 μg of Formula (III) twice a day consecutively for 14 days.
A survival study using the compound of Formula (IV) in mice harboring B16 melanoma was performed. Mice implanted with B16 tumors were treated with the compound of Formula (IV) (n=8) and compared to a control group having B16 tumors and not receiving treatment with the compound of Formula (IV) (n=8).

[3] = 17 days post-implantation, flow cytometry

## O=C(O)c1ccc2ncoc2c1 [Formula (III), 1,3-benzoxazole-6-carboxylic acid]
[1]; 420 μM compound, 45 μM Sb9 protein, PBS pH 7.0, 25° C.
  binding to MBP-Sb9 by STD NMR: confirmed the binding activity
[1]; 450 μM compound, 45 μM Sb9, various pH values
  pH dependence of binding to MBP-Sb9 by STD NMR: enhanced significantly at lower pH
[2]; 17 days post-implantation
  level of effector IFNγ+ CD4+ cells in TME: increased level
  level of immunosuppressive IL10+CD4+ and IL10+CD8+ cells in TME: decreased level
[2]; [3]
  levels of immunosuppressive Tregs, TAMs, and MDSCs in melanoma vs control: significantly lower
  populations of CD44+ CD62L− (effector memory) CD8+, GrB+ CD8+ and IFNγ+ CD8+ in melanoma vs control: significantly higher
[2]; B16-WT tumors, 300 μg i.p. bid for 14 days (FIG. 5B)
  median survival time (MST): 39 days
[2]; C57BL/6J, FIG. 18, Formula (III) 300 μg twice a day 14 days, anti-PD1 200 μg iv every 3 days
  median survival time (MST): 36 days
[2]; C57BL/6 mice, 300 μg i.p. bid for 14 days
  reduction of size of B16 tumors vs control: 3.7 fold
